Assay results as given in PubChem BioAssay (NCI).
Several values for one entry are separate records, joined by “and”; a condition that tells them apart may be missing. Equal values may be shown once.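 Growth conditions: 96-well plates. Treatment: test compound, 48 hours, 5 concentrations. Analysis: linear interpolation between bracketing concentrations; unreached endpoints set to highest concentration. The concentration for 50% growth inhibition is given as GI50. TGI: total growth inhibition.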

What was measured:
Assay in all cases: NCI tumour cell line growth inhibition, 48 h
M14 melanoma = test system: M14 melanoma
NCI-H23 lung = test system: NCI-H23 lung
HCC-2998 colon = test system: HCC-2998 colon
OVCAR-5 ovarian = test system: OVCAR-5 ovarian
IGROV1 ovarian = test system: IGROV1 ovarian
HOP-92 NSCLC = test system: HOP-92 NSCLC
OVCAR-3 ovarian = test system: OVCAR-3 ovarian
BT-549 breast = test system: BT-549 breast
SK-OV-3 ovarian = test system: SK-OV-3 ovarian
TK-10 renal = test system: TK-10 renal

SMILES | GI50 (M14 melanoma) | TGI (M14 melanoma) | GI50 (NCI-H23 lung) | TGI (NCI-H23 lung) | GI50 (HCC-2998 colon) | TGI (HCC-2998 colon) | GI50 (OVCAR-5 ovarian) | TGI (OVCAR-5 ovarian) | GI50 (IGROV1 ovarian) | TGI (IGROV1 ovarian) | GI50 (HOP-92 NSCLC) | TGI (HOP-92 NSCLC) | GI50 (OVCAR-3 ovarian) | TGI (OVCAR-3 ovarian) | GI50 (BT-549 breast) | TGI (BT-549 breast) | GI50 (SK-OV-3 ovarian) | TGI (SK-OV-3 ovarian) | GI50 (TK-10 renal) | TGI (TK-10 renal)
CC(C)COCC(CN(Cc1ccccc1)c1ccccc1)N1CCCC1 (centres undefined) | 2.3 µM | 5.76 µM | 2.82 µM | 14.6 µM | 2.25 µM | 6.16 µM | 3.93 µM | 15.8 µM | 3.18 µM | 15 µM | 1.66 µM | 6.88 µM | 3.15 µM | 12.1 µM | 5.75 µM | 19 µM | 3.17 µM | 13.6 µM | 3.43 µM | 12 µM
Cc1cc2[nH]c(=O)c3c4ccccc4cn3c2cc1C | 13.6 µM | 26.9 µM | 14.9 µM | 32.2 µM | 4.04 µM | 16.7 µM | 13.8 µM | 27.4 µM | 12.3 µM | 26.6 µM | 15.4 µM | 30.2 µM | 14 µM | 28.5 µM | 19.6 µM | 40.9 µM | 18.4 µM | 34.5 µM | 19.7 µM | 34.2 µM
Cc1ccc2c(c1)C(C)Cc1c(Cl)ncnc1N2C (centres undefined) | 2.77 µM | 22.9 µM | 3.29 µM | 22.7 µM | 3.54 µM | 18.3 µM | 5.05 µM | 49.3 µM | 3.39 µM | 36.4 µM | 2.92 µM | 8.5 µM | 2.26 µM | 5.4 µM | 3 µM | 9.74 µM | 3.75 µM | 31 µM | 4.32 µM | 34.4 µM
CNC(=O)CC1NC(=O)c2csc(n2)-c2ccc(-c3nc(C4=NC(C(=O)N5CCCC5C(N)=O)CO4)cs3)nc2-c2csc(n2)-c2csc(n2)C(C(C)C)NC(=O)CNC(=O)c2csc(n2)C(C(C)C)NC(=O)c2nc1sc2C (centres undefined) |  |  | > 25 µM |  |  | 2.31 µM |  |  | > 25 µM |  | > 25 µM | > 25 µM |  | 0.937 µM | > 25 µM | 4.5 µM and > 25 µM | > 25 µM | 6.03 µM and > 25 µM | > 25 µM | 
CNCCNc1c2c(c(NCCNC)c3[nH]ccc13)C(=O)c1ccccc1C2=O | 0.27 µM | 1.35 µM | 0.197 µM | 0.558 µM | 0.203 µM | 0.649 µM | 0.536 µM | 1.93 µM | 0.111 µM | 0.686 µM | 0.418 µM | 2.37 µM | 0.174 µM | 0.887 µM | 4 µM | 8.21 µM | 5.67 µM | 13.3 µM | 0.183 µM | 0.502 µM
O=C(O)C1C(C(=O)O)C23CC2(C(=O)O)C2(C(=O)O)CCC3=C3CCCC312 (centres undefined) |  | > 100 µM |  | 36.4 µM |  |  |  | 47.3 µM |  | 51.6 µM |  | 36.5 µM |  | 11.7 µM |  | 69.9 µM |  | 36.6 µM |  | 38.1 µM
CCN1C(=O)N(c2ccccc2)C2NC(=S)N(/N=C/C=C/c3ccccc3)C21 (centres undefined) | 0.239 µM | > 100 µM | 0.569 µM | > 100 µM | 0.399 µM | > 100 µM | 0.631 µM | > 100 µM | 0.599 µM | > 58.2 µM | 4.66 µM | > 100 µM | 0.263 µM |  | 0.643 µM | > 24.7 µM | 0.421 µM | > 100 µM | 0.825 µM | > 100 µM
